This note sets out measurements from patent US20170114025A1, “METHODS FOR INHIBITING NECROPTOSIS” (Catalyst Therapeutics Pty Ltd, priority 2014, published 2017).

Where two headings read alike, the source gives them in different places.

Series [1] deals with U937 human histiocytic leukemia cell line. The series can be described thus: Screening for inhibition of TSQ induced necroptosis, 96 well plate format. Type of series: cell-based. As for the experimental part: Screening Compounds for Inhibition of TSQ Induced Necroptosis, 96 Well Plate Format.
U937 human histiocytic leukemia cell line.
35,000 per well in 120 μL of media, counted and plated immediately prior to addition of inhibitor and death stimuli. Final well volume of 150 μL after addition of compounds and death stimuli
HTRPMI (WEHI Media kitchen, contains L-Glutamine and penicillin, streptomycin)—supplemented with 7.4% v/v FCS (Gibco, Precision Plus. Lot #1221437)
48 hours following addition of compounds and death stimuli
DMSO Final Concentration (% v/v): 0.2%
Compounds that are in the Death Stimulation Cocktail and their Final Concentrations: • hTNF-Fc (100 ng/ml)—produced by Silke lab, WEHI • Compound A (500 nM)—Smac mimetic, Tetralogic • Q-VD-OPh (10 μM)—MP Biomedicals
Analysis: • Cells treated with PI staining (1 μg/ml) and analysed by flow cytometry
TNF; S: Smac mimetic; Q: Q-VD-OPh): TSQ treatment ensures that cells specifically undergo necroptotic cell death. TNF activates the TNF receptor, Smac mimetic direct the signal away from proinflammatory signaling and toward the RIP1/RIP3-mediated cell death pathways, and Q-VD-OPh ensures that the apoptotic response is blocked leaving only the programmed necrosis response. The compounds' activity (solution in DMSO) tested in this TSQ-induced assay is evaluated by measuring their ability to block cell death as measured by flow cytometry after PI staining.

Another series relates to U937 cells. The experiment in a line: Counter screen: cell viability without TSQ cocktail (off target effect). Type of series: cell-based. The note with it: U937 without TSQ cocktail; for Off target effect (% cell death) at 500 nM: compound at 500 nM; for Off target effect (% cell death) at 1 uM: compound at 1 uM; for Off target effect (% cell death) at 5 uM: compound at 5 uM; for Off target effect (% cell death) at 10 uM: compound at 10 uM. As for the experimental part:
In parallel, all compounds are tested for their ability to affect cell viability. The same U937 cells are treated with compound in DMSO without the TSQ cocktail. This counter screen enables evaluation of off-target effects. In this case gain, cell viability is measured by flow cytometry after PI staining.
In general terms: A counterscreen serves to expose hits that act by an unwanted route or on another target.

The mark [2] stands for this setting: U-937, U937, TSQ, 48 hours, average IC50, unit not given in Table 2 (titrations in nM), read-out: Cell based assay Average.
Where [3] appears, read: U-937, U937, TSQ, 48 hours, unit not given in Table 2 (titrations given in nM), read-out: Cell based assay IC50.

Regarding `CN(c1ccc(NC(=O)Nc2ccc(OC(F)(F)F)cc2)cc1)c1ccnc(Nc2ccccc2S(N)(=O)=O)n1` [Compound 5, 2-(4-(Methyl(4-(3-(4-(trifluoromethoxy)phenyl)ureido)phenyl)amino)pyrimidin-2-ylamino)benzenesulfonamide], the IC50 in series [1] (setting [2]) was more than 10000 nM; in series [1] (setting [3]), not below 10000 nM.

`Cc1ccc(F)c(NC(=O)Nc2ccc(N(C)c3ccnc(Nc4cccc(S(N)(=O)=O)c4)n3)cc2)c1` [Compound 6]: the IC50 in series [1] (setting [2]) was found to be 19.9 nM. In addition, the IC50 in series [1] (setting [3]) amounted to 19 nM. Moreover, in the series with U937 cells, the “Off target effect (% cell death) at 500 nM” value is on record as less than 20%, the “Off target effect (% cell death) at 1 uM” value is recorded as 40%, the “Off target effect (% cell death) at 5 uM” value turned out to be 86% and the “Off target effect (% cell death) at 10 uM” value amounted to 89%.

As for `CN(c1ccc(NC(=O)Nc2ccc(OC(F)(F)F)cc2)cc1)c1ccnc(Nc2cccc(C(N)=O)c2)n1` [Compound 8, 3-((4-(methyl(4-(3-(4-(trifluoromethoxy)phenyl)ureido)phenyl)amino)pyrimidin-2-yl)amino) benzamide], the IC50 in series [1] (setting [2]) amounted to 89.1 nM; in series [1] (setting [3]) it was 85.2 nM.

Turning to `CNS(=O)(=O)c1cccc(Nc2nccc(N(C)c3ccc(NC(=O)Nc4ccc(OC(F)(F)F)cc4)cc3)n2)c1` [Compound 9, N-methyl-3-((4-(methyl(4-(3-(4-(trifluoromethoxy)phenyl)ureido)-phenyl)amino)pyrimidin-2-yl)amino) benzenesulfonamide], the IC50 in series [1] (setting [2]) came out at 42 nM. Moreover, the IC50 in series [1] (setting [3]) came to 73.1 nM. Also, in the series on U937 cells, the “Off target effect (% cell death) at 500 nM” value was less than 20%, the “Off target effect (% cell death) at 1 uM” value is recorded as less than 20%, the “Off target effect (% cell death) at 5 uM” value was 43% and the “Off target effect (% cell death) at 10 uM” value came to 88%.

On to `CN(c1ccc(NC(=O)Nc2ccc(OC(F)(F)F)cc2)cc1)c1ccnc(Nc2cccc(S(=O)(=O)N(C)C)c2)n1` [Compound 10, N,N-dimethyl-3-((4-(methyl(4-(3-(4-(trifluoromethoxy)phenyl)ureido)-phenyl)amino)pyrimidin-2-yl)amino)benzenesulfonamide], for which the IC50 in series [1] (setting [2]) is 45.6 nM. Also, in series [1] (setting [3]), the IC50 worked out at 72.4 nM. Moreover, in the series with U937 cells, the “Off target effect (% cell death) at 500 nM” value is reported as less than 20%, the “Off target effect (% cell death) at 1 uM” value was less than 20%, the “Off target effect (% cell death) at 5 uM” value was 38% and the “Off target effect (% cell death) at 10 uM” value came out at 69%.

Turning to `NS(=O)(=O)c1cccc(Nc2nccc(Nc3ccc(NC(=O)Nc4ccc(OC(F)(F)F)cc4)cc3)n2)c1` [Compound 11, 3-((4-((4-(3-(4-(trifluoromethoxy)phenyl)ureido)phenyl)amino)pyrimidin-2-yl)amino)benzenesulfonamide], the IC50 in series [1] (setting [2]) was 359 nM. The IC50 in series [1] (setting [3]) is 359 nM. In addition, in the series with U937 cells, the “Off target effect (% cell death) at 500 nM” value is less than 20%, the “Off target effect (% cell death) at 1 uM” value is reported as less than 20%, the “Off target effect (% cell death) at 5 uM” value is listed as less than 20% and the “Off target effect (% cell death) at 10 uM” value is recorded as 20%.

Regarding `CN(C(=O)Nc1ccc(OC(F)(F)F)cc1)c1ccc(N(C)c2ccnc(Nc3cccc(S(N)(=O)=O)c3)n2)cc1` [Compound 12, 3-((4-(methyl(4-(1-methyl-3-(4-(trifluoromethoxy)phenyl)ureido)phenyl)amino)pyrimidin-2-yl)amino) benzene sulfonamide], in series [1] (setting [3]), the IC50 is 327 nM. In the series with U937 cells, the “Off target effect (% cell death) at 500 nM” value was 36%, the “Off target effect (% cell death) at 1 uM” value stood at 41%, the “Off target effect (% cell death) at 5 uM” value amounted to 36% and the “Off target effect (% cell death) at 10 uM” value was determined as 56%.

For the molecule `CN(c1ccc(NC(=O)Nc2ccc(OC(F)(F)F)cc2)cc1)c1ccnc(Nc2cccc(CS(N)(=O)=O)c2)n1` [Compound 13, (3-((4-(Methyl(4-(3-(4-(trifluoromethoxy)phenyl)ureido)phenyl)amino)pyrimidin-2-yl)amino)phenyl)methanesulfonamide], in series [1] (setting [2]), the IC50 is 149 nM. Further, the IC50 in series [1] (setting [3]) was found to be 167 nM. In addition, in the series with U937 cells, the “Off target effect (% cell death) at 500 nM” value was 24%, the “Off target effect (% cell death) at 1 uM” value is given as 20%, the “Off target effect (% cell death) at 5 uM” value came to 14% and the “Off target effect (% cell death) at 10 uM” value is 84%.

As for `CN(c1cccc(NC(=O)Nc2ccc(OC(F)(F)F)cc2)c1)c1ccnc(Nc2cccc(S(N)(=O)=O)c2)n1` [Compound 14, 3-((4-(methyl(3-(3-(4-(trifluoromethoxy)phenyl)ureido)phenyl)amino)pyrimidin-2-yl)amino) benzenesulfonamide], the IC50 in series [1] (U-937, 48 h, read-out: Cell based assay Average) was determined as 342 nM. In addition, the IC50 in series [1] (U-937, 48 h, read-out: Cell based assay IC50) was 443 nM. In the series on U937 cells, the “Off target effect (% cell death) at 500 nM” value is less than 20%, the “Off target effect (% cell death) at 1 uM” value is reported as less than 20%, the “Off target effect (% cell death) at 5 uM” value is given as less than 20% and the “Off target effect (% cell death) at 10 uM” value is 70%.

Consider `CN(c1ccc(NC(=O)Nc2ccc(OC(F)(F)F)cc2)cc1)c1ccnc(Nc2cccc(S(N)(=O)=O)c2)c1` [Compound 15, 3-((4-(methyl(4-(3-(4-(trifluoromethoxy)phenyl)ureido)phenyl)amino)pyridin-2-yl)amino) benzenesulfonamide], for which, in series [1] (setting [2]), the IC50 amounted to 304 nM. Further, the IC50 in series [1] (setting [3]) turned out to be 328 nM. Further, in the series with U937 cells, the “Off target effect (% cell death) at 500 nM” value is on record as less than 20%, the “Off target effect (% cell death) at 1 uM” value is on record as less than 20%, the “Off target effect (% cell death) at 5 uM” value is given as less than 20% and the “Off target effect (% cell death) at 10 uM” value is listed as 43%.

With `CN(c1ccc(NC(=O)Cc2ccc(OC(F)(F)F)cc2)cc1)c1ccnc(Nc2cccc(S(N)(=O)=O)c2)n1` [Compound 16, N-(4-(methyl(2-((3-sulfamoylphenyl)amino)pyrimidin-4-yl)amino)phenyl)-2-(4-(trifluoro-methoxy)phenyl)acetamide], the IC50 in series [1] (setting [2]) was found to be 87.3 nM. In series [1] (setting [3]), the IC50 stood at 97.5 nM. Further, in the series with U937 cells, the “Off target effect (% cell death) at 500 nM” value was less than 20%, the “Off target effect (% cell death) at 1 uM” value is less than 20%, the “Off target effect (% cell death) at 5 uM” value is recorded as less than 20% and the “Off target effect (% cell death) at 10 uM” value is 30%.

For the molecule `CN(c1ccc(CC(=O)Nc2ccc(OC(F)(F)F)cc2)cc1)c1ccnc(Nc2cccc(S(N)(=O)=O)c2)n1` [Compound 17, 2-(4-(methyl(2-((3-sulfamoylphenyl)amino)pyrimidin-4-yl)amino)phenyl)-N-(4-(trifluoromethoxy)phenyl)acetamide], the IC50 in series [1] (setting [2]) was determined as 1050 nM. The IC50 in series [1] (setting [3]) was found to be 979 nM. Moreover, in the series with U937 cells, the “Off target effect (% cell death) at 500 nM” value amounted to 22%, the “Off target effect (% cell death) at 1 uM” value was determined as 21%, the “Off target effect (% cell death) at 5 uM” value is less than 20% and the “Off target effect (% cell death) at 10 uM” value is given as 39%.

`CN(c1ccc(NC(=O)Nc2ccc(OC(F)(F)F)cc2)cc1)c1ccnc(Nc2ccc(F)c(S(N)(=O)=O)c2)n1` [Compound 18, 2-Fluoro-5-((4-(methyl(4-(3-(4-(trifluoromethoxy)phenyl)ureido)phenyl)amino)pyrimidin-2-yl)amino)benzenesulfonamide]: the IC50 in series [1] (setting [2]) worked out at 59.4 nM. The IC50 in series [1] (setting [3]) worked out at 91.7 nM. Also, in the series on U937 cells, the “Off target effect (% cell death) at 500 nM” value stood at 27%, the “Off target effect (% cell death) at 1 uM” value is 29%, the “Off target effect (% cell death) at 5 uM” value came out at 94% and the “Off target effect (% cell death) at 10 uM” value came out at 93%.
